We go through two compounds from publication PMC5555576, “Selective small-chemical inhibitors of protein arginine methyltransferase 5 with anti-lung cancer activity” (PLoS ONE, 2017).

Molecules are shown by their SMILES. Several values for one entry are separate records, joined by “and”; a condition that tells them apart may be missing. Equal entries are not always repeated.

Experiment [1] concerns PRMT5 F225M. In words: Radioactive methyltransferase assay, mutant PRMT5. The class given is biochemical, human. Conditions: Phe225 to Met. On the procedure:
Methylation reactions were performed as previously described with a few modifications. Reaction mixtures (40 μl) containing 1.2 μg of PRMT5, 98 ng of PRMT1 or 98 ng of PRMT3; 2 μg of SmD3 or histones; 1 μCi of S-[methyl-^3H]adenosylmethionine (H^3-AdoMet; PerkinElmer); and 5 μM AdoMet were incubated in 50 mM Tris-HCl (pH 7.5)–1 mM EGTA–1 mM EDTA at 30°C for 2 h. Reaction mixtures (20 μl) were boiled in 5 μl of 5x SDS sample buffer and separated on a 15% polyacrylamide gel. Gels were fixed for 30 min in 40% methanol–10% acetic acid, incubated in 20 ml of Amplify (Amersham Life Science) for 10 min, dried and exposed to X-ray film at -80°C. IC50 was calculated by linear regression analysis of percent inhibition. The other half (20 μl) of each reaction mixture was spread onto DE81 chromatography paper discs (Whatman). The paper discs were washed 4 times with 50 mM NaHCO3 and dried. The amounts of methylated products were quantified by liquid scintillation.
The inhibitory activity of the compounds may stem from this interaction. To test this possibility, we conducted site-directed mutagenesis to mutate Phe225 in human PRMT5 (corresponding to Phe379 in the C. elegans PRMT5) to Met. The mutated PRMT5 was expressed in bacteria and purified by Ni-nitrilotriacetic acid (Ni-NTA) affinity chromatography (Fig 4A). The activity of the mutant PRMT5 was examined by the radioactive methyltransferase assay. […] The IC50 values for the mutant PRMT5 increased from 4.3 to 183 folds higher than those for the wild type PRMT5 (Fig 4D). […] The results also can help explain the specificity of the compounds to PRMT5. However, the contribution of this interaction to inhibition varies among the compounds. For example, compound C2 interacts with three amino acid residues (Lys451, Glu450, and Phe379) (Fig 3A) with the mutation of Phe to Met resulting in a 50-times higher IC50 (Fig 4C and 4D).
Fig 4 The conserved phenylalanine residue in PRMT5 is critical for inhibition by the five compounds. A, DS-PAGE of recombinant wild type (WT) and F225M mutant (MT) PRMT5. The gel was stained with Coomassie Brilliant Blue R250. A band corresponding to an unknown bacterial protein is indicated (star). B, The F225M mutation increased the methytransferase activity of PRMT5. In vitro methylation reactions were performed with recombinant wild type (lanes 2–4) or mutant (lanes 5–7) PRMT5 (1.2, 2.4 or 4.8 μg) and SmD3 (2 μg) as the substrate. C, The F225M mutation in PRMT5 decreased inhibition of arginine methylation by the compounds. The reaction mixture contained SmD3 (2 μg); wild type or mutant PRMT5 (1.2 μg); and 1, 10 or 100 μM compounds as indicated. D, The F225M mutation in PRMT5 […] of the compounds, as determined by quantitation and analysis of methylation assay results. TEXT PRINTED IN THE PICTURE: (D) C2: IC50 (μM) PRMT5: 0.1; IC50 (μM) PRMT5 F225M: 5.0 | (D) C5: IC50 (μM) PRMT5: 0.8; IC50 (μM) PRMT5 F225M: 3.5 | (D) C6: IC50 (μM) PRMT5: 0.5; IC50 (μM) PRMT5 F225M: 7.0 | (D) C9: IC50 (μM) PRMT5: 6.0; IC50 (μM) PRMT5 F225M: 45.0 | (D) C11: IC50 (μM) PRMT5: 0.3; IC50 (μM) PRMT5 F225M: 55.0

Experiment [2] has as its system PRMT5-target genes in A549 cells. In words: Real-time PCR of PRMT5-regulated genes. The class given is cell-based. The settings on record: 50 μM, 24 hrs. On the procedure:
We identified a set of genes whose expression was altered by silencing PRMT5 expression in lung cancer A549 cells. A549 cells were treated with C9a and EPZ015666 and expression of 6 identified PRMT5-regulated genes was analyzed. […] The future study would use genome-wide approach to determine genes whose expression is affected by PRMT5 inhibitors.
Supplementary file pone.0181601.s005.tif: S5 Fig PRMT5 inhibitors selectively affect PRMT5-target genes in lung cancer cells. RNAs were isolated from cells cultured in the presence of DMSO, EPZ015666 (Sigma-Aldrich) (50 μM), or C9a (50 μM) for 24 hrs and submitted to RT-RCR analysis of gene expression in cancer cell lines. Relative mRNA levels = mRNA in cells treated with PRMT5-inhibtor/mRNA in DMSo-treated cells. (TIF) Click here for additional data file.
On the technique in general: Quantitative PCR measures a nucleic acid by following its amplification.

Where [3] appears, read: single replicate, vs control, actin-normalised.

Take `CCn1c(=O)[nH]c2cc(C(=O)Nc3ccc(OC)cc3)ccc2c1=O` [Compound C5]: the “increase of IC50 for mutant PRMT5 over wild type PRMT5” value in experiment [1] came out at 4.3 fold.

For `Nc1cccc(Nc2ncnc3c2cnn3Cc2ccccc2)c1` [Compound C9a], in experiment [2] (average), the “EXPRESSION FOLD CHANGE avg BTG2” value stood at 1.857, the “EXPRESSION FOLD CHANGE avg FGFR1” value amounted to 0.9076, the “EXPRESSION FOLD CHANGE avg FOXO3” value worked out at 1.441 and the “EXPRESSION FOLD CHANGE avg GLIPR1” value was found to be 6.032. In experiment [2] (average), the “EXPRESSION FOLD CHANGE avg PTTG1” value was found to be 1.0371 and the “EXPRESSION FOLD CHANGE avg TIGAR” value is 1.502. In experiment [2] (setting [3]), the “EXPRESSION FOLD CHANGE BTG2” value was 1.889 and 1.826 and 0.7777; the “EXPRESSION FOLD CHANGE FGFR1” value was 0.9289 and 0.7185 and 1.075; the “EXPRESSION FOLD CHANGE FOXO3” value is 1.695 and 1.429 and 1.452; the “EXPRESSION FOLD CHANGE GLIPR1” value is 5.777 and 6.772 and 5.548. Besides, in experiment [2] (setting [3]), the “EXPRESSION FOLD CHANGE PTTG1” value was 0.9706 and 1.104 and 1.215; the “EXPRESSION FOLD CHANGE TIGAR” value is 1.627 and 1.032 and 1.378.
